System: HIV-IIIb
Assay: Test A: Antiviral Assays in MT4 Cells
Assay type: cell-based
Settings: Human immunodeficiency virus 1, IIIB, MT4, 120 h, Table I; MT-4 cells infected with HIV-IIIb, 5 days incubation, CellTiter-Glo readout
Experimental: The antiviral properties of a compound disclosed herein may be determined using Test A described below.
Test A: Antiviral Assays in MT4 Cells
For the antiviral assay utilizing MT-4 cells, 0.4 μL of […] test concentration of 3-fold serially diluted compound in DMSO was added to 40 μL of cell growth medium (RPMI 1640, 10% FBS, 1% penicillin/Streptomycin, 1% L-Glutamine, 1% HEPES) in each well of 384-well assay plates (10 concentrations) in quadruplicate.
1 mL aliquots of 2×10e6 MT-4 cells are pre-infected for 1 and 3 hrs respectively, @ 37° C. with 25 μL (MT4) or of either cell growth medium (mock-infected) or a fresh 1:250 dilution of an HIV-IIIb concentrated ABI stock (0.004 m.o.i. for MT4 cells). Infected and uninfected cells are diluted in cell growth medium and 35 μL of 2000 (for MT4) cells is added to each well of the assay plates.
Assay plates were then incubated in a 37° C. incubator. After 5 days of incubation, 25 μl of 2× concentrated CellTiter-Glo™ Reagent (catalog # G7573, Promega Biosciences, Inc., Madison, Wis.) was added to each well of the assay plate. Cell lysis was carried out by incubating at room temperature for 2-3 min and then chemiluminescence was read using the Envision reader (PerkinElmer).

SMILES | EC50 [µM]
CC(C)(C)O[C@H](C(=O)O)c1c(-c2ccc3c4c(ccnc24)CCO3)c2ccccc2c2ccccc12 (atropisomer, axis not shown) [Example 24, (S)-2-tert-Butoxy-2-((R)-10-(2,3-dihydropyrano[4,3,2-de]quinolin-7-yl)phenanthren-9-yl)acetic acid] | 0.109
CCCC(C)(C)O[C@H](C(=O)O)c1c(C)cc2ccccc2c1-c1ccc2c3c(ccnc13)CCO2 (atropisomer, axis not shown) [Example 29, (S)-2-((R)-1-(2,3-Dihydropyrano[4,3,2-de]quinolin-7-yl)-3-methylnaphthalen-2-yl)-2-(2-methylpentan-2-yloxy)acetic acid] | 0.084
Cc1cc2ccc(C#CC(C)(O)c3ccccn3)cc2c(-c2ccc(Cl)cc2)c1[C@H](OC(C)(C)C)C(=O)O (stereo partly drawn) [Example 10, (2S)-2-tert-Butoxy-2-(1-(4-chlorophenyl)-7-(3-hydroxy-3-(pyridin-2-yl)but-1-ynyl)-3-methylnaphthalen-2-yl)acetic acid] | 0.062
Cc1cc2ccc(C#CC(C)(O)c3ccc(F)cc3)cc2c(-c2ccc(Cl)cc2)c1[C@H](OC(C)(C)C)C(=O)O (stereo partly drawn) [Example 8, (2S)-2-tert-butoxy-2-(1-(4-chlorophenyl)-7-(3-(4-fluorophenyl)-3-hydroxybut-1-ynyl)-3-methylnaphthalen-2-yl)acetic acid] | 0.12

Same assay, conditions: Human immunodeficiency virus 1, IIIB, MT4, 120 h, Table II; MT-4 cells infected with HIV-IIIb, 5 days incubation, CellTiter-Glo readout

SMILES | EC50 [µM]
Cc1cc2ccccc2c(-c2ccc3c4c(ccnc24)CCO3)c1[C@H](OC(C)(C)CCCCS(N)(=O)=O)C(=O)O (atropisomer, axis not shown) [Example 95] | 0.386
Cc1cc2ccccc2c(-c2ccc3c4c(ccnc24)CCO3)c1[C@@H](OC(C)(C)CF)C(=O)O (atropisomer, axis not shown) [Example 101] | 4.74
Cc1cc2cc(-c3cnc(N(C)C)nc3)ccc2c(-c2ccc3c4c(ccnc24)CCO3)c1[C@H](OC(C)(C)C)C(=O)O (atropisomer, axis not shown) [Example 48] | 0.0104
Cc1cc2ccccc2c(-c2ccc3c4c(ccnc24)CCO3)c1C(OC(C)(CF)CF)C(=O)O (stereo not drawn) [Example 106] | 0.0407
CC(C)(C)O[C@H](C(=O)O)c1c(-c2ccc3c4c(ccnc24)CCO3)c2ccccc2c2[nH]ncc12 (atropisomer, axis not shown) [Example 90] | 0.366

Same assay, conditions: Table II; MT-4 cells infected with HIV-IIIb, 5 days incubation, CellTiter-Glo readout

SMILES | EC50 [µM]
Cc1cc2cc(-c3ccc(-c4cncnc4)cc3)ccc2c(-c2ccc3c4c(ccnc24)CCO3)c1[C@H](OC(C)(C)C)C(=O)O (atropisomer, axis not shown) [Example 41] | 0.0409
CC(C)(C)O[C@H](C(=O)O)c1c(-c2ccc3c4c(ccnc24)CCO3)c2ccccc2c2occc12 (atropisomer, axis not shown) [Example 77] | 32.4
Cc1cc2ccccc2c(-c2ccc3c4c(ccnc24)CCO3)c1[C@H](OC(C)(C)CCF)C(=O)O (atropisomer, axis not shown) [Example 96] | 6.42
Cc1cc2cc(-c3cncnc3C)ccc2c(-c2ccc3c4c(ccnc24)CCO3)c1[C@H](OC(C)(C)C)C(=O)O (atropisomer, axis not shown) [Example 57] | 10
Cc1cc2cccc(F)c2c(-c2ccc3c4c(ccnc24)CCO3)c1[C@H](OC(C)(C)C)C(=O)O (atropisomer, axis not shown) [Example 68] | 2.94
Cc1cc2cc(-c3cnc(-c4ccccc4)nc3)ccc2c(-c2ccc3c4c(ccnc24)CCO3)c1[C@H](OC(C)(C)C)C(=O)O (atropisomer, axis not shown) [Example 36] | 0.1
